Tests used:
cMYC in NCI-H82 = assay: Western blot analysis of cMYC protein level in NCI-H82 cells; format: cell-based; conditions: 24 h; for effect on cMYC protein level in NCI-H82: various concentrations; for NCI-H82 cMYC, relative protein level: 1.0 μM of compound, mean ± SD, triplicate
Method: (§1) Cancer cells were treated with each of the compounds at different compound concentrations. […] Each lysate was separated by sodium dodecyl sulfate polyacrylamide gel electrophoresis (SDS-PAGE), transferred to polyvinylidene fluoride (PVDF, Millipore, USA) membrane, and blotted with antibodies. […] After the blotting (0.2% casein, 1% BSA, or 5% nonfat milk), membranes were washed with blotting buffer (0.2% casein in 1× PBS or 1× TBST), and corresponding alkaline phosphatase (AP)- or horseradish peroxidase (HRP)-conjugated secondary antibodies (Sigma-Aldrich) were added. The blots were developed by chemiluminescence (PerkinElmer, USA).

[1] = molecular target: T1, human Aurora A (amino acids 123–401) (Homo sapiens, UniProt O14965); assay: In vitro inhibition of Aurora A kinase activity (Kinase-Glo Plus Luminescent Kinase assay, ATP consumption); format: biochemical; conditions: for IC50: mean of 2–3 independent determinations ± SD, >100 = inhibition < 50% at 100 nM
T1 construct: N-terminal truncated human Aurora A (amino acids 123–401); GST; made in house; host or cells: Sf9 insect cells
T1 sequence (O14965 123-401): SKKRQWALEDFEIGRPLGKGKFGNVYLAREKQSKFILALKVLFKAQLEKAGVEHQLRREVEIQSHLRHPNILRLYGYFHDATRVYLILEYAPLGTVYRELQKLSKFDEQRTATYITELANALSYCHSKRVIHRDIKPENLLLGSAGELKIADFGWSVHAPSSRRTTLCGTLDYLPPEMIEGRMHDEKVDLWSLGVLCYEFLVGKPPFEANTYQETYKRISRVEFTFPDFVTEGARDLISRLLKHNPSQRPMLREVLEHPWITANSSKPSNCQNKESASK
Method: The inhibitory potency of the newly synthesized small molecules against Aurora A was first measured in ATP consumption assays using purified Aurora A protein.
The efficacy of the compounds as inhibitors of Aurora A kinase was assessed in vitro using the Kinase-Glo Plus Luminescent Kinase assay (Promega, USA), as described previously.[45] […] The resulting mixture was incubated at 25 °C for 20 min. A 70 μL aliquot of the mixture was transferred to a black microtiter plate.

MYCN in SK-N-BE(2) = assay: Western blot analysis of MYCN protein level in SK-N-BE(2) cells; format: cell-based; conditions: 1.0 μM of compound, 24 h, mean ± SD, triplicate
Method: as §1

| SMILES | IC50 [1] [nM] | NCI-H82 cMYC, relative protein level (cMYC in NCI-H82) | also measured |
| --- | --- | --- | --- |
| CCN(CCCOc1ccc2c(Nc3cc(CC(=O)Nc4cccc(F)c4)[nH]n3)ncnc2c1)CCOP(=O)(O)O [AZD1152, reference compound] | – | – | effect on cMYC protein level in NCI-H82 (cMYC in NCI-H82): limited effect |
| CCN1CCN(C(=O)Cc2ccc(Nc3ncc(F)c(Nc4ccc(C(=O)Nc5ccccc5Cl)cc4)n3)cc2)CC1 [Aurora A inhibitor I, reference compound] | – | – | effect on cMYC protein level in NCI-H82 (cMYC in NCI-H82): limited effect |
| Cc1cc(Nc2cc(N3CCN(C)CC3)nc(N[C@H]3CCN(C(=O)c4cccc(Cl)c4F)C3)n2)n[nH]1 [Compound 2, (S)-(3-Chloro-2-fluorophenyl) (3-((4-((5-methyl-1H-pyrazol-3-yl)amino)-6-(4-methylpiperazin-1-yl)pyrimidin-2-yl)amino)pyrrolidin-1-yl)methanone] | 25.7 ± 4.9 | – | – |
| Cc1cc(Nc2cc(N3CC(N(C)C)C3)nc(N[C@H]3CCN(C(=O)c4cccc(Cl)c4F)C3)n2)n[nH]1 [Compound 3, (S)-(3-Chloro-2-fluorophenyl) (3-((4-(3-(dimethylamino)azetidin-1-yl)-6-((5-methyl-1H-pyrazol-3-yl)amino)pyrimidin-2-yl)amino)pyrrolidin-1-yl)methanone] | 29.8 ± 2.5 | – | – |
| Cc1cc(Nc2cc(N3CC[C@H](N(C)C)C3)nc(N[C@H]3CCN(C(=O)c4cccc(Cl)c4F)C3)n2)n[nH]1 [Compound 4, (3-Chloro-2-fluorophenyl) ((S)-3-((4-((S)-3-(dimethylamino)pyrrolidin-1-yl)-6-((5-methyl-1H-pyrazol-3-yl)amino)pyrimidin-2-yl)amino)pyrrolidin-1-yl)methanone] | 29.8 ± 0.7 | – | – |
| Cc1cc(Nc2cc(N(C)CCN(C)C)nc(N[C@H]3CCN(C(=O)c4cccc(Cl)c4F)C3)n2)n[nH]1 [Compound 5, (S)-(3-Chloro-2-fluorophenyl) (3-((4-((2-(dimethylamino)ethyl) (methyl)amino)-6-((5-methyl-1H-pyrazol-3-yl)amino)pyrimidin-2-yl)amino)pyrrolidin-1-yl)methanone] | 40.8 ± 2.8 | – | – |
| CCN1CCN(c2cc(Nc3cc(C)[nH]n3)nc(N[C@H]3CCN(C(=O)c4ccc(C(F)(F)F)cc4F)C3)n2)CC1 [Compound 14, (S)-(3-((4-(4-Ethylpiperazin-1-yl)-6-((5-methyl-1H-pyrazol-3-yl)amino)pyrimidin-2-yl)amino)pyrrolidin-1-yl) (2-fluoro-4-(trifluoromethyl)phenyl)methanone] | > 100 | – | – |
| CCN1CCN(c2cc(Nc3cc(C)[nH]n3)nc(N[C@H]3CCN(C(=O)c4cc(F)c(F)cc4F)C3)n2)CC1 [Compound 19, (S)-(3-((4-(4-Ethylpiperazin-1-yl)-6-((5-methyl-1H-pyrazol-3-yl)amino)pyrimidin-2-yl)amino)pyrrolidin-1-yl) (2,4,5-trifluorophenyl)methanone] | > 100 | – | – |
| CCN1CCN(c2cc(Nc3cc(C)[nH]n3)nc(N[C@H]3CCN(S(=O)(=O)c4ccc(Cl)cc4F)C3)n2)CC1 [Compound 21, (S)-N^2-(1-((4-Chloro-2-fluorophenyl)sulfonyl)pyrrolidin-3-yl)-6-(4-ethylpiperazin-1-yl)-N^4-(5-methyl-1H-pyrazol-3-yl)pyrimidine-2,4-diamine] | > 100 | – | reduction of Aurora A inhibitory potency versus 13 [1]: more than 2.5 fold |

The next lines start with results.

| IC50 [1] [nM] | SMILES | NCI-H82 cMYC, relative protein level (cMYC in NCI-H82) | also measured |
| --- | --- | --- | --- |
| 24.1 ± 7.9 | CCN1CCN(c2cc(Nc3cc(C)[nH]n3)nc(N[C@H]3CCN(C(=O)c4cccc(Cl)c4F)C3)n2)CC1 [Compound 1, (S)-(3-Chloro-2-fluorophenyl) (3-((4-(4-ethylpiperazin-1-yl)-6-((5-methyl-1H-pyrazol-3-yl)amino)pyrimidin-2-yl)amino)pyrrolidin-1-yl)methanone] | 0.781 ± 0.015 | – |
| 29 ± 6.7 | CCN1CCN(c2cc(Nc3cc(C)[nH]n3)nc(N[C@H]3CCN(C(=O)c4ccccc4)C3)n2)CC1 [Compound 6, (S)-(3-((4-(4-Ethylpiperazin-1-yl)-6-((5-methyl-1H-pyrazol-3-yl)amino)pyrimidin-2-yl)amino)pyrrolidin-1-yl) (phenyl)methanone] | – | – |
| 42.9 ± 2.6 | CCN1CCN(c2cc(Nc3cc(C)[nH]n3)nc(N[C@H]3CCN(C(=O)c4ccc(Cl)cc4)C3)n2)CC1 [Compound 7, (S)-(4-Chlorophenyl) (3-((4-(4-ethylpiperazin-1-yl)-6-((5-methyl-1H-pyrazol-3-yl)amino)pyrimidin-2-yl)amino)pyrrolidin-1-yl)methanone] | 0.887 ± 0.050 | SK-N-BE(2) MYCN, relative protein level (MYCN in SK-N-BE(2)): 0.889 ± 0.067 |
| 48.2 ± 9.7 | CCN1CCN(c2cc(Nc3cc(C)[nH]n3)nc(N[C@H]3CCN(C(=O)c4ccc(Cl)cc4Cl)C3)n2)CC1 [Compound 8, (S)-(2,4-Dichlorophenyl) (3-((4-(4-ethylpiperazin-1-yl)-6-((5-methyl-1H-pyrazol-3-yl)amino)pyrimidin-2-yl)amino)pyrrolidin-1-yl)methanone] | 1.175 ± 0.124 | SK-N-BE(2) MYCN, relative protein level (MYCN in SK-N-BE(2)): 1.000 ± 0.035 |
| 64.9 ± 8.5 | CCN1CCN(c2cc(Nc3cc(C)[nH]n3)nc(N[C@H]3CCN(C(=O)c4ccc(Cl)cc4C)C3)n2)CC1 [Compound 9, (S)-(4-Chloro-2-methylphenyl) (3-((4-(4-ethylpiperazin-1-yl)-6-((5-methyl-1H-pyrazol-3-yl)amino)pyrimidin-2-yl)amino)pyrrolidin-1-yl)methanone] | 0.984 ± 0.052 | SK-N-BE(2) MYCN, relative protein level (MYCN in SK-N-BE(2)): 1.057 ± 0.312 |
| 52.2 ± 8.1 | CCN1CCN(c2cc(Nc3cc(C)[nH]n3)nc(N[C@H]3CCN(C(=O)c4ccc(Cl)c(F)c4)C3)n2)CC1 [Compound 10, (S)-(4-Chloro-3-fluorophenyl) (3-((4-(4-ethylpiperazin-1-yl)-6-((5-methyl-1H-pyrazol-3-yl)amino)pyrimidin-2-yl)amino)pyrrolidin-1-yl)methanone] | 0.715 ± 0.048 | SK-N-BE(2) MYCN, relative protein level (MYCN in SK-N-BE(2)): 0.578 ± 0.135 |
| 58.1 ± 7.4 | CCN1CCN(c2cc(Nc3cc(C)[nH]n3)nc(N[C@H]3CCN(C(=O)c4ccc(Cl)c(C)c4)C3)n2)CC1 [Compound 11, (S)-(4-Chloro-3-methylphenyl) (3-((4-(4-ethylpiperazin-1-yl)-6-((5-methyl-1H-pyrazol-3-yl)amino)pyrimidin-2-yl)amino)pyrrolidin-1-yl)methanone] | 1.050 ± 0.060 | SK-N-BE(2) MYCN, relative protein level (MYCN in SK-N-BE(2)): 1.030 ± 0.256 |
| > 100 | CCN1CCN(c2cc(Nc3cc(C)[nH]n3)nc(N[C@H]3CCN(C(=O)c4cc(F)c(Cl)c(F)c4)C3)n2)CC1 [Compound 18, (S)-(4-Chloro-3,5-difluorophenyl) (3-((4-(4-ethylpiperazin-1-yl)-6-((5-methyl-1H-pyrazol-3-yl)amino)pyrimidin-2-yl)amino)pyrrolidin-1-yl)methanone] | – | – |
| > 100 | CCN1CCN(c2cc(Nc3cc(C)[nH]n3)nc(N[C@H]3CCN(C(=O)c4ccc(Cl)nc4F)C3)n2)CC1 [Compound 20, (S)-(6-Chloro-2-fluoropyridin-3-yl) (3-((4-(4-ethylpiperazin-1-yl)-6-((5-methyl-1H-pyrazol-3-yl)amino)pyrimidin-2-yl)amino)pyrrolidin-1-yl)methanone] | – | reduction of Aurora A inhibitory potency versus 13 [1]: more than 2.5 fold |

— PMC8279414, “Discovery and Synthesis of a Pyrimidine-Based Aurora Kinase Inhibitor to Reduce Levels of MYC Oncoproteins” (Journal of Medicinal Chemistry, 2021)
